According to US10155802B2, “Locally-active anticoagulants and anti-inflammatory agents” (priority 2011, dated 2018):
Positions of bridges follow the written chain, without caps; N, C: chain ends. Non-standard residues stand in square brackets, D forms with d. Residues, ends and D or L forms follow the SMILES beside them. Chains are numbered I, II in the order given. No end group written: not given here. *: point of attachment. Benzenesulfonyl(4-tBu) = CC(C)(C)c1ccc(S(=O)(=O)*)cc1; Dansyl = CN(C)c1cccc2c(S(=O)(=O)*)cccc12; dTic = O=C(O)[C@H]1Cc2ccccc2CN1; dPip = O=C(O)[C@H]1CCCCN1

What was measured:
Assay type in all cases: biochemical
Human α-thrombin [1] = target: T1, Human α-thrombin (Homo sapiens, UniProt P00734); experiment: Thrombin inhibition constants of monovalent active-site moieties and TWE1 (method not described)
T1 construct: Human α-thrombin was purchased from Haemotologic Technologies, Inc., VT, USA; purchased Haemotologic Technologies, Inc., VT, USA

Human α-thrombin [2] = target: T1, Human α-thrombin; experiment: Inhibition of thrombin-catalyzed hydrolysis of chromogenic substrate S-2366 (inhibition constant Ki); details: Ki
thrombin = thrombin (Homo sapiens, UniProt P00734); experiment: Fibrinogen clotting assay (concentration needed to double the clotting time = IC50)
Method: The same enzyme kinetic assays were used to determine the inhibitory activities of MH2 and two MH2-derived peptides, MH2-allGS and MH2-GS (Table 4). Clotting assays were carried out to determine the inhibitory activities of the rest of the MH2 peptides by use of the protocols described previously (DiMaio 1990; Taka 2000; Su 2004). The assay employs bovine plasma fibrinogen dissolved at 0.1% in 50 mM Tris-Cl, 100 mM NaCl, 0.1% PEG-8000 at pH 7.6 (i.e. the clotting buffer). In addition to the use of optical densities or ODs (Gill 1989), concentrations of the peptide stock solutions were ranked (and corrected when necessary) by use of quantitative proton NMR spectroscopy (Cavaluzzi 2002). Each assay mixture contained a certain concentration of the peptide, and the reaction was started by the addition of human thrombin to a final concentration of approximately 0.5 nM. Optical absorbance of the assay mixtures was measured at 420 nm using the Spectramax™ plate reader. The onset clotting time was determined as an intersection of the baseline and the tangent line at point of inflection of the clotting curve. The concentration of an MH2 peptide needed to double the clotting time was defined as IC50 (DiMaio 1990) as illustrated in FIG. 4 and summarized in Table 4. The correlation between IC50 values and linker unfolding is similar to that for the BTI series of inhibitors (Table 3). […] (Table 3).

pooled human plasma [3] = experiment: Prothrombin time (PT, thromboplastin) clotting assay
Method: (§1) Prothrombin (clotting) time (PT) or activated partial thromboplastin (clotting) time (APTT) assays were carried out at certain concentrations of the thrombin inhibitors of the present invention using pooled human plasma with addition of thromboplastin or activated partial thromboplastin to initiate clotting. The assays employed kits from Biopool International (Ventura, Calif., USA) or from Pacific Haemostasis (Middletown, Va., USA) using the procedures supplied by the manufacturer. Briefly, the stock solution of an inhibitor (with the concentration determined using UV-based OD determination, see Gill 1989) is diluted in a buffer of 20 mM HEPES and 150 mM NaCl at pH 7.4 (HBS) to a final volume of 50 μL, to which is added the reconstituted normal plasma (Product #CMS-176172 from Fisher Scientific) in an equal volume. This solution mixture is equilibrated at 37° C. for 2 minutes before 50 μL of the APTT-10XL solution (CMS-022927) is introduced forcibly to ensure proper mixing. This new mixture was incubated at 37° C. for another 5 minutes, which is followed by the addition of 50 μL of 0.02 M […] (Fisher Scientific CMS-022925) pre-warmed at 37° C. For the prothrombin time (PT) assay, an inhibitor is diluted in HBS to a final volume of 25 μL, to which is added the reconstituted control plasma (Fisher Scientific CMS-176172) in an equal volume. This solution mixture is equilibrated at 37° C. for 5 minutes before addition of 100 μL of the thromboplastin solution (CMS-176099) pre-warmed at 37° C. For APTT assays, inhibitory activities of the peptides are expressed as concentrations needed to achieve 50% of the maximum delay in clotting time (MCT50) as compared to the absence of thrombin inhibitors (Maraganore 1989). For PT assays, inhibitory activities are measured as the concentrations of the peptides that prolong the clotting time by 50% (IC50) of that of the normal control plasma (Maraganore 1990). PT and APTT assays were also carried out using slightly modified experimental procedures. Thus, 50 μL of a control plasma (Pacific Hemostasis) solution was added to 100 μL HBS (20 mM HEPES and 150 mM NaCl at pH 7.4) containing varied concentrations of the peptides of this invention. After incubation at 37° C. for 5 min, the mixture was added to 50 μL of the thromboplastin or activated partial thromboplastin reagent. Clotting of the plasma was monitored by change in absorbance at 420 nm using a SpectraMax™ plate reader.

pooled human plasma [4] = experiment: Activated partial thromboplastin time (APTT) clotting assay; details: 37° C.; concentration for 50% of maximum delay in clotting time; read-out: MTC50 (APTT)
Method: as §1

[5] = monovalent binding moieties for the active site of thrombin

| Compound | Ki (Human α-thrombin [1]; [5]) [µM] | also measured |
| --- | --- | --- |
| CC(=O)N[C@H](Cc1ccccc1)C(=O)N1CCC[C@H]1C(=O)N[C@@H](CCCNC(=N)N)C(=O)O [Ac-dFPR] | 170 ± 18 | – |
| CC[C@H](C)[C@H](NC(=O)[C@H](CCC(=O)O)NC(=O)[C@H](CCC(=O)O)NC(=O)[C@H](Cc1ccccc1)NC(=O)[C@H](CC(=O)O)NC(=O)CNC(=O)[C@H](CCC(=O)O)NC(=O)[C@@H](NC(=O)[C@H](Cc1c[nH]c2ccccc12)NC(=O)[C@@H](NC(=O)[C@H](Cc1c[nH]c2ccccc12)NC(=O)[C@@H](NC(=O)[C@H](CCCCN)NC(=O)[C@@H](NC(=O)[C@H](C)NC(=O)[C@H](CC(=O)O)NC(=O)[C@H](CC(=O)O)NC(=O)[C@H](Cc1c[nH]c2ccccc12)NC(=O)[C@@H](NC(=O)[C@H](Cc1c[nH]c2ccccc12)NC(=O)[C@H](CCC(=O)O)NC(=O)CNC(=O)[C@H](CC(=O)O)NC(=O)[C@@H](NC(=O)[C@H](Cc1ccccc1)NC(=O)[C@H](CCCNC(=N)N)NC(=O)[C@@H]1CCCN1)[C@@H](C)O)[C@@H](C)O)[C@@H](C)O)[C@@H](C)O)[C@@H](C)O)[C@@H](C)O)C(=O)N1CCC[C@H]1C(=O)N[C@@H](CCC(=O)O)C(=O)N[C@@H](CCC(=O)O)C(=O)N[C@@H](Cc1ccc(O)cc1)C(=O)N[C@@H](CC(C)C)C(=O)N[C@@H](CCC(N)=O)C(=O)O [BRI-T109] | – | Ki (Human α-thrombin [2]; FIG. 14A): 1.45 µM |
| CC[C@H](C)[C@H](NC(=O)[C@H](CCC(=O)O)NC(=O)[C@H](CCC(=O)O)NC(=O)[C@H](Cc1ccccc1)NC(=O)[C@H](CC(=O)O)NC(=O)CNC(=O)[C@H](CCC(=O)O)NC(=O)[C@@H](NC(=O)[C@H](Cc1c[nH]c2ccccc12)NC(=O)[C@@H](NC(=O)[C@H](Cc1c[nH]c2ccccc12)NC(=O)[C@@H](NC(=O)[C@H](CCCCN)NC(=O)[C@@H](NC(=O)[C@H](C)NC(=O)[C@H](CC(=O)O)NC(=O)[C@H](CC(=O)O)NC(=O)[C@H](Cc1c[nH]c2ccccc12)NC(=O)[C@@H](NC(=O)[C@H](Cc1c[nH]c2ccccc12)NC(=O)[C@H](CCC(=O)O)NC(=O)CNC(=O)[C@H](CC(=O)O)NC(=O)[C@@H](NC(=O)[C@H](Cc1ccccc1)NC(=O)[C@H](CCCNC(=N)N)NC(=O)[C@@H]1CCCN1C(=O)[C@H](CCCNC(=N)N)NC(=O)[C@@H]1CCCN1C(=O)[C@H](CCC(N)=O)NC(=O)[C@@H](N)Cc1ccccc1)[C@@H](C)O)[C@@H](C)O)[C@@H](C)O)[C@@H](C)O)[C@@H](C)O)[C@@H](C)O)C(=O)N1CCC[C@H]1C(=O)N[C@@H](CCC(=O)O)C(=O)N[C@@H](CCC(=O)O)C(=O)N[C@@H](Cc1ccc(O)cc1)C(=O)N[C@@H](CC(C)C)C(=O)O [BRI-T207] | – | Ki (Human α-thrombin [2]; T = 37° C., enzyme kinetics, chromogenic substrate): ~0.4 µM |
| CC(C)(C)c1ccc(S(=O)(=O)N[C@@H](CCCNC(=N)N)C(=O)N2CCCC[C@@H]2C(=O)NCC(N)=O)cc1 [Bbs-R-(d-Pip)-G-NH2] | 2.26 ± 0.1 | – |
| CC(C)(C)c1ccc(S(=O)(=O)N[C@@H](CCCNC(=N)N)C(=O)N2CCCC[C@@H]2C(N)=O)cc1 [Bbs-R-(d-Pip)-NH2] | 1.13 ± 0.03 | – |
| CC(C)(C)c1ccc(S(=O)(=O)N[C@@H](CCCNC(=N)N)C(=O)N2CCCC[C@@H]2C(=O)N[C@@H](Cc2c[nH]c3ccccc23)C(N)=O)cc1 [Bbs-R-(d-Pip)-W-NH2] | 6 ± 1 | – |
| CC(C)(C)OC(=O)N[C@H](Cc1ccccc1)C(=O)N1CCC[C@H]1C(=O)N[C@@H](CCCNC(=N)N)C(=O)O [Boc-dFPR] | 4.38 ± 0.18 | – |
| CN(C)c1cccc2c(S(=O)(=O)N[C@@H](CCCNC(=N)N)C(=O)N3CCCC[C@@H]3C(N)=O)cccc12 [Dansyl-R-(d-Pip)-NH2] (Dansyl-Arg-[dPip]-NH2) | 0.37 ± 0.04 | – |
| CN(C)c1cccc2c(S(=O)(=O)N[C@@H](CCCNC(=N)N)C(=O)N3Cc4ccccc4C[C@@H]3C(N)=O)cccc12 [Dansyl-R-(d-Tic)-NH2] (Dansyl-Arg-[dTic]-NH2) | 0.86 ± 0.06 | – |
| N=C(N)NCCC[C@H](NC(=O)[C@@H]1CCCN1C(=O)[C@H](N)Cc1ccccc1)C(=O)O [H-dFPR] | 1.57 ± 0.06 | – |
| CC[C@H](C)[C@H](N)C(=O)N[C@@H](CCCNC(=N)N)C(=O)N[C@@H](Cc1ccccc1)C(=O)N[C@H](C(=O)N[C@@H](CC(=O)O)C(=O)NCC(=O)N[C@@H](CCC(=O)O)C(=O)N[C@@H](Cc1c[nH]c2ccccc12)C(=O)N[C@H](C(=O)N[C@@H](Cc1c[nH]c2ccccc12)C(=O)N[C@@H](CC(=O)O)C(=O)N[C@@H](CC(=O)O)C(=O)N[C@@H](C)C(=O)N[C@H](C(=O)N[C@@H](CCCCN)C(=O)N[C@H](C(=O)N[C@@H](Cc1c[nH]c2ccccc12)C(=O)N[C@H](C(=O)N[C@H](C(=O)N[C@H](C(=O)N[C@@H](CCC(=O)O)C(=O)NCC(=O)N[C@@H](CC(=O)O)C(=O)N[C@@H](Cc1ccccc1)C(=O)N[C@@H](CCC(=O)O)C(=O)N[C@@H](CCC(=O)O)C(=O)N[C@H](C(=O)N1CCC[C@H]1C(=O)N[C@@H](CCC(=O)O)C(=O)N[C@@H](CCC(=O)O)C(=O)N[C@@H](Cc1ccc(O)cc1)C(=O)N[C@@H](CC(C)C)C(=O)N[C@@H](CCC(N)=O)C(=O)O)[C@@H](C)CC)[C@@H](C)O)C(C)C)[C@@H](C)O)[C@@H](C)O)[C@@H](C)O)[C@@H](C)O)[C@@H](C)O [MH2-wZIP6] | – | IC50 (thrombin; IC50 (anti-clotting), T = 37° C.): 0.053 µM; concentrations required in PT-APTT curves relative to MH2-GS (pooled human plasma [3]): about 2.5 times; IC50 (pooled human plasma [3]; 37° C., concentration that prolongs clotting time by 50%): < 0.4 µM; EC50 (pooled human plasma [4]): 3 µM |
| CC[C@H](C)[C@H](N)C(=O)N[C@@H](CCCNC(=N)N)C(=O)N[C@@H](Cc1ccccc1)C(=O)N[C@H](C(=O)N[C@@H](CC(=O)O)C(=O)NCC(=O)N[C@@H](CCC(=O)O)C(=O)NCC(=O)N[C@H](C(=O)N1CCC[C@H]1C(=O)N[C@@H](CC(N)=O)C(=O)N1CCC[C@H]1C(=O)N[C@@H](CCC(=O)O)C(=O)N[C@@H](CO)C(=O)N[C@@H](Cc1c[nH]cn1)C(=O)N[C@@H](CC(N)=O)C(=O)N[C@@H](CC(N)=O)C(=O)NCC(=O)N[C@@H](CC(=O)O)C(=O)N[C@@H](Cc1ccccc1)C(=O)N[C@@H](CCC(=O)O)C(=O)N[C@@H](CCC(=O)O)C(=O)N[C@H](C(=O)N1CCC[C@H]1C(=O)N[C@@H](CCC(=O)O)C(=O)N[C@@H](CCC(=O)O)C(=O)N[C@@H](Cc1ccc(O)cc1)C(=O)N[C@@H](CC(C)C)C(=O)N[C@@H](CCC(N)=O)C(=O)O)[C@@H](C)CC)[C@@H](C)O)[C@@H](C)O [MH2] | – | IC50 (thrombin; IC50, printed inside the sequence cell of Table 1, temperature not stated): ~0.014 µM |
| variant of BTI1: disulfide-bond linkage between Bbs-Arg-(D-Pip)-Gly-Cys and 15N-labelled Cys-(GS)8-GDFEEIPEEYLQ (peptide 1 {Benzenesulfonyl(4-tBu)}-R[dPip]GC; peptide 2 CGSGSGSGSGSGSGSGSGDFEEIPEEYLQ; disulfide I:4-II:1; also: chain 2 15N-labelled) [TWE1] | – | Ki (Human α-thrombin [1]; bivalent inhibitor TWE1): 0.0022 ± 0.0004 µM |
